From the Kinase Knowledgebase extract (Sharma et al. 2016)

Legend:
PIK3CD (Human) = PIK3CD (Human) (UniProt O00329); assay: Assessment of PIK3CD Kinase Activity
PIK3CB (Human) = PIK3CB (Human) (UniProt P42338); assay: Assessment of PIK3CB Kinase Activity
PIK3CA (human) = PIK3CA (human) (UniProt P42336); assay: Assessment of PIK3CA Kinase Activity
PIK3CA (human), sequence (P42336 whole entry, looked up): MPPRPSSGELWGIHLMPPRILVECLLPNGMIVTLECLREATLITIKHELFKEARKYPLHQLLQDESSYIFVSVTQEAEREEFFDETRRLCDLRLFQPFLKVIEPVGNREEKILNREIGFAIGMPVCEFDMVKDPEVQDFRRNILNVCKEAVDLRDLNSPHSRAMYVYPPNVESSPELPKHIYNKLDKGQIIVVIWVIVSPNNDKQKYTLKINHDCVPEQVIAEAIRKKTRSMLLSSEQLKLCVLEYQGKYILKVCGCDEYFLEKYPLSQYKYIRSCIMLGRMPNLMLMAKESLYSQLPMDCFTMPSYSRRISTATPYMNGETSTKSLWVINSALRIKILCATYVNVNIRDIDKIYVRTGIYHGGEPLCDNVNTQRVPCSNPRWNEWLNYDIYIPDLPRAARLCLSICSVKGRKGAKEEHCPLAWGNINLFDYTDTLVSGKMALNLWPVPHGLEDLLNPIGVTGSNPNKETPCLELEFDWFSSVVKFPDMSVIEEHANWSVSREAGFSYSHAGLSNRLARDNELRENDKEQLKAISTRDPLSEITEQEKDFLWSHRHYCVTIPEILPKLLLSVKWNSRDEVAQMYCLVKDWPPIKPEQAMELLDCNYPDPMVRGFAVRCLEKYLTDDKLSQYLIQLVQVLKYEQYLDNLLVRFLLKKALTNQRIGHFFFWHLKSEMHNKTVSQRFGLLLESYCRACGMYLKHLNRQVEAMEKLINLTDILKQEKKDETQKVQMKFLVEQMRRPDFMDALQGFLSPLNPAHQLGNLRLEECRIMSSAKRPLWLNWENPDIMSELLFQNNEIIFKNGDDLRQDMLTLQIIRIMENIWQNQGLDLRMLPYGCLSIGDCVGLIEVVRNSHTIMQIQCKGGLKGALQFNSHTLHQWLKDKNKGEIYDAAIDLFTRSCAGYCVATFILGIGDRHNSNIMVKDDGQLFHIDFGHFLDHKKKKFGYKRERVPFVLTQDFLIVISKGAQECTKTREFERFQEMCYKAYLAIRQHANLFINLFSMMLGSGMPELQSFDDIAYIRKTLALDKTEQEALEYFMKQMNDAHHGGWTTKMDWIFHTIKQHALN

PIK3CD (Human), sequence (O00329 whole entry, looked up): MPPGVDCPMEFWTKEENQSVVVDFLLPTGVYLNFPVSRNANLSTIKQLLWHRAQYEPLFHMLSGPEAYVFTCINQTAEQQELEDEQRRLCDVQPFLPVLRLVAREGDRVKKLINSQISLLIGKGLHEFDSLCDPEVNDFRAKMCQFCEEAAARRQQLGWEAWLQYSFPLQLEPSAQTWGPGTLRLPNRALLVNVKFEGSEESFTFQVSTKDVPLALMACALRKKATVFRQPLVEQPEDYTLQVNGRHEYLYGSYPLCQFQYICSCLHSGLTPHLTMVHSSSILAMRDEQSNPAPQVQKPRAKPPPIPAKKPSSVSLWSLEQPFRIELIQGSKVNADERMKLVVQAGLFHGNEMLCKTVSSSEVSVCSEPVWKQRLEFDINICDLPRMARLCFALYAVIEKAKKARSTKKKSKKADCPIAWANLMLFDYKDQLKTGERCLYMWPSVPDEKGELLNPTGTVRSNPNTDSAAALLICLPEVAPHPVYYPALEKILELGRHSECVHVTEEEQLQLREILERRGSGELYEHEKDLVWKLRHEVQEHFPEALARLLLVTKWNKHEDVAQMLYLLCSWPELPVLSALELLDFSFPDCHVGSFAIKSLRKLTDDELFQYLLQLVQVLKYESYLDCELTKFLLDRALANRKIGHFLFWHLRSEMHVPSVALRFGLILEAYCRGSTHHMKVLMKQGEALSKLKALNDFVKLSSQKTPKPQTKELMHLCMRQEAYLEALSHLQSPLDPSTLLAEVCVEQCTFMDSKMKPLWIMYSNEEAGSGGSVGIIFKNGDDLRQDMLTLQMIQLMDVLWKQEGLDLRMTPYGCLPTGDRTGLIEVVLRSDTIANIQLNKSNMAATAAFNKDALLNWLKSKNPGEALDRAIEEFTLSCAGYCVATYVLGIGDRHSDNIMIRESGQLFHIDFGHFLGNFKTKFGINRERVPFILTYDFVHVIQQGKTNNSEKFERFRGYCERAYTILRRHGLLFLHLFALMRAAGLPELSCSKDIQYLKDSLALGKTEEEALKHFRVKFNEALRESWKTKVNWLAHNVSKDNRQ
PIK3CB (Human), sequence (P42338 whole entry, looked up): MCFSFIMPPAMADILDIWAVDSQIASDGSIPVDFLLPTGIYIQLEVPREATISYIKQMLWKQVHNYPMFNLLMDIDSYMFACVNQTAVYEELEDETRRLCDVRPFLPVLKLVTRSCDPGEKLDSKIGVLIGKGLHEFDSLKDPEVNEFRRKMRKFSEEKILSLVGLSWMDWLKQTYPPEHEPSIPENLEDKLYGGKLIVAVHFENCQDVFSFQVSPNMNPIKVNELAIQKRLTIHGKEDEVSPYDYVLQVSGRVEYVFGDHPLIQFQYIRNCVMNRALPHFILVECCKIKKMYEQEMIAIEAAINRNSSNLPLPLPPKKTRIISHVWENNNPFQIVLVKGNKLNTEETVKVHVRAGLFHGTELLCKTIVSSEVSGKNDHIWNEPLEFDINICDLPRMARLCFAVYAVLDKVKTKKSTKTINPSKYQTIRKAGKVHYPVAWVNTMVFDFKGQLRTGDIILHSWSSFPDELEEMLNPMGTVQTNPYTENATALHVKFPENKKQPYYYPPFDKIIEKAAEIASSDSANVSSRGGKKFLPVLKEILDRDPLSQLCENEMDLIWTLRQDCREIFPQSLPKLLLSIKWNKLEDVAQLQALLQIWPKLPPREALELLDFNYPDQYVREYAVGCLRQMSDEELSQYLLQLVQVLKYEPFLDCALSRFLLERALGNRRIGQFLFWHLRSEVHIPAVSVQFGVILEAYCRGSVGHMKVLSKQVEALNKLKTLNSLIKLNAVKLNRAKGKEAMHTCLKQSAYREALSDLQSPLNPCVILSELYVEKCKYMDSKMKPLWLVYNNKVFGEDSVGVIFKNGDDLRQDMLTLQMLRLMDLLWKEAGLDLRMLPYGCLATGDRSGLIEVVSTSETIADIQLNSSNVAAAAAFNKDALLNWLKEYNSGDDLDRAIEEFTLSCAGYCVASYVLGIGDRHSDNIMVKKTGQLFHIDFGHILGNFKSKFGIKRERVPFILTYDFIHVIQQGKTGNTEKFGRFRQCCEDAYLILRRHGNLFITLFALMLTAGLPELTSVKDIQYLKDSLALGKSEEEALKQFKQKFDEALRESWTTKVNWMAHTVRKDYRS

| SMILES | IC50 (PIK3CD (Human)) | IC50 (PIK3CB (Human)) | IC50 (PIK3CA (human)) |
| --- | --- | --- | --- |
| CN(Cc1ccccc1)c1nc(N2CCOCC2)nc(-n2c(C(F)F)nc3ccccc32)n1 | < 100 nM | 100 to 1000 nM | – |
| FC(F)c1nc2ccccc2n1-c1nc(Nc2ncccn2)nc(N2CCOCC2)n1 | – | – | 100 to 1000 nM |
| FC(F)c1nc2ccccc2n1-c1nc(NCc2ccccc2)nc(N2CCOCC2)n1 | < 100 nM | < 100 nM | 100 to 1000 nM |
| FC(F)c1nc2ccccc2n1-c1nc(Nc2cnc3ccccc3c2)nc(N2CCOCC2)n1 | 100 to 1000 nM | – | 100 to 1000 nM |
| FC(F)c1nc2ccccc2n1-c1nc(Oc2cccnc2)nc(N2CCOCC2)n1 | – | – | 100 to 1000 nM |
| FC(F)c1nc2ccccc2n1-c1nc(-c2cncnc2)cc(N2CCOCC2)n1 | 100 to 1000 nM | – | 100 to 1000 nM |
| CS(=O)(=O)c1nc2ccccc2n1-c1nc(Nc2cccnc2)nc(N2CCOCC2)n1 | < 100 nM | 100 to 1000 nM | 100 to 1000 nM |
| CSc1nc2ccccc2n1-c1nc(Nc2cccnc2)nc(N2CCOCC2)n1 | 100 to 1000 nM | – | – |
| FC(F)c1nc2ccccc2n1-c1nc(NCc2cccnc2)nc(N2CCOCC2)n1 | < 100 nM | 100 to 1000 nM | 100 to 1000 nM |
| FC(F)c1nc2ccccc2n1-c1nc(Oc2ccccc2)nc(N2CCOCC2)n1 | – | > 10000 nM | > 10000 nM |
| FC(F)c1nc2ccccc2n1-c1nc(Sc2ccccc2)nc(N2CCOCC2)n1 | – | > 10000 nM | > 10000 nM |
| FC(F)c1nc2ccccc2n1-c1nc(NCc2ccncc2)nc(N2CCOCC2)n1 | – | – | 100 to 1000 nM |
| FC(F)c1nc2ccccc2n1-c1nc(-c2cccnc2)cc(N2CCOCC2)n1 | 100 to 1000 nM | – | 100 to 1000 nM |
| FC(F)c1nc2ccccc2n1-c1nc(Nc2ccccc2)nc(N2CCOCC2)n1 | < 100 nM | 100 to 1000 nM | 100 to 1000 nM |
| COc1cccc2c1nc(C(F)F)n2-c1nc(Nc2cnc(N(C)CCN(C)C)nc2)nc(N2CCOCC2)n1 | < 100 nM | – | < 100 nM |
| COc1cc(N)cc2c1nc(C(F)F)n2-c1nc(-c2ccn(C)n2)nc(N2CCOCC2)n1 | < 100 nM | – | < 100 nM |
| COc1ccc(Nc2nc(N3CCOCC3)nc(-n3c(C(F)F)nc4c(OC)cccc43)n2)nn1 | < 100 nM | 100 to 1000 nM | < 100 nM |
| CN(c1cncnc1)c1nc(N2CCOCC2)nc(-n2c(C(F)F)nc3ccccc32)n1 | < 100 nM | – | < 100 nM |
| CN(c1ccccc1)c1nc(N2CCOCC2)nc(-n2c(C(F)F)nc3ccccc32)n1 | 100 to 1000 nM | 100 to 1000 nM | 100 to 1000 nM |
| FC(F)c1nc2ccccc2n1-c1nc(Nc2ccncn2)nc(N2CCOCC2)n1 | < 100 nM | – | < 100 nM |
| COc1cccc2c1nc(C(F)F)n2-c1nc(Nc2ccncn2)nc(N2CCOCC2)n1 | < 100 nM | 100 to 1000 nM | < 100 nM |
| COc1cccc2c1nc(C(F)F)n2-c1nc(-c2cccnc2)nc(N2CCOCC2)n1 | < 100 nM | – | < 100 nM |
| Cn1cc(Nc2nc(N3CCOCC3)nc(-n3c(C(F)F)nc4ccccc43)n2)cn1 | < 100 nM | 100 to 1000 nM | < 100 nM |
| FC(F)c1nc2ccccc2n1-c1nc(Nc2cnccn2)nc(N2CCOCC2)n1 | < 100 nM | – | < 100 nM |
| FC(F)c1nc2ccccc2n1-c1nc(Nc2cccnn2)nc(N2CCOCC2)n1 | < 100 nM | 100 to 1000 nM | < 100 nM |

Further lines, results first:

| IC50 (PIK3CD (Human)) | IC50 (PIK3CB (Human)) | IC50 (PIK3CA (human)) | SMILES |
| --- | --- | --- | --- |
| < 100 nM | < 100 nM | < 100 nM | COc1ccc(Nc2nc(N3CCOCC3)nc(-n3c(C(F)F)nc4c(OC)cccc43)n2)cn1 |
| < 100 nM | 100 to 1000 nM | < 100 nM | COc1cc(Nc2nc(N3CCOCC3)nc(-n3c(C(F)F)nc4c(OC)cccc43)n2)ncn1 |
| < 100 nM | 100 to 1000 nM | < 100 nM | FC(F)c1nc2ccccc2n1-c1nc(Nc2ccncc2)nc(N2CCOCC2)n1 |
| < 100 nM | – | < 100 nM | COc1cccc2c1nc(C(F)F)n2-c1nc(N2CCOCC2)c2ncn(-c3cncnc3)c2n1 |
| < 100 nM | – | < 100 nM | COc1cc(N)cc2c1nc(C(F)F)n2-c1nc(N2CCOCC2)nc(-n2cccn2)n1 |
| < 100 nM | < 100 nM | < 100 nM | FC(F)c1nc2ccccc2n1-c1nc(NCc2ccccn2)nc(N2CCOCC2)n1 |
| < 100 nM | 100 to 1000 nM | < 100 nM | COc1cccc2c1nc(C(F)F)n2-c1nc(Nc2ccc(N(C)C)nc2)nc(N2CCOCC2)n1 |
| < 100 nM | 100 to 1000 nM | < 100 nM | COc1ccncc1Nc1nc(N2CCOCC2)nc(-n2c(C(F)F)nc3c(OC)cccc32)n1 |
| < 100 nM | 100 to 1000 nM | < 100 nM | COc1cccc2c1nc(C(F)F)n2-c1nc(Nc2cncnc2)nc(N2CCOCC2)n1 |
| < 100 nM | – | < 100 nM | FC(F)c1nc2ccccc2n1-c1nc(Nc2ccccn2)nc(N2CCOCC2)n1 |
| < 100 nM | – | < 100 nM | COc1cc(N)cc2c1nc(C(F)F)n2-c1nc(-c2cn[nH]c2)nc(N2CCOCC2)n1 |
| 100 to 1000 nM | – | < 100 nM | COc1ncc(-c2cc(N3CCOCC3)nc(-n3c(C(F)F)nc4c(OC)cccc43)n2)cn1 |
| < 100 nM | 100 to 1000 nM | < 100 nM | FC(F)c1nc2ccccc2n1-c1nc(-c2cccnc2)nc(N2CCOCC2)n1 |
| < 100 nM | – | < 100 nM | COc1cc(N)cc2c1nc(C(F)F)n2-c1nc(-c2cccnc2)cc(N2CCOCC2)n1 |
| < 100 nM | 100 to 1000 nM | < 100 nM | CNc1ccc(Nc2nc(N3CCOCC3)nc(-n3c(C(F)F)nc4c(OC)cccc43)n2)cn1 |
| < 100 nM | < 100 nM | < 100 nM | FC(F)c1nc2ccccc2n1-c1nc(Nc2cccnc2)nc(N2CCOCC2)n1 |

| IC50 (PIK3CD (Human)) | IC50 (PIK3CB (Human)) | IC50 (PIK3CA (human)) | SMILES |
| --- | --- | --- | --- |
| < 100 nM | – | < 100 nM | COc1cccc2c1nc(C(F)F)n2-c1nc(-c2ccc(N)nc2)nc(N2CCOCC2)n1 |
| < 100 nM | – | < 100 nM | COc1cccc2c1nc(C(F)F)n2-c1nc(Nc2cnc(Cl)nc2)nc(N2CCOCC2)n1 |
| < 100 nM | 100 to 1000 nM | < 100 nM | COc1cccc2c1nc(C(F)F)n2-c1nc(Nc2cccnc2)nc(N2CCOCC2)n1 |
| < 100 nM | – | < 100 nM | COc1cccc2c1nc(C(F)F)n2-c1nc(N2CCOCC2)nc(-n2cccn2)n1 |
| < 100 nM | 100 to 1000 nM | < 100 nM | COc1cccc2c1nc(C(F)F)n2-c1nc(Nc2ccc(N)nc2)nc(N2CCOCC2)n1 |
| < 100 nM | 100 to 1000 nM | < 100 nM | COc1cccc2c1nc(C(F)F)n2-c1nc(Nc2ccc(F)nc2)nc(N2CCOCC2)n1 |
| < 100 nM | 100 to 1000 nM | < 100 nM | COc1ncc(Nc2nc(N3CCOCC3)nc(-n3c(C(F)F)nc4c(OC)cccc43)n2)cn1 |
| 100 to 1000 nM | – | < 100 nM | COc1cccc2c1nc(C(F)F)n2-c1nc(-c2cncnc2)cc(N2CCOCC2)n1 |
| < 100 nM | < 100 nM | < 100 nM | COc1cccc2c1nc(C(F)F)n2-c1nc(N2CCOCC2)nc(N(C)c2cccnc2)n1 |
| < 100 nM | – | < 100 nM | COc1cccc2c1nc(C(F)F)n2-c1nc(-c2cccnc2)cc(N2CCOCC2)n1 |
| < 100 nM | 100 to 1000 nM | < 100 nM | COc1cccc2c1nc(C(F)F)n2-c1nc(Nc2cccnn2)nc(N2CCOCC2)n1 |
| < 100 nM | – | < 100 nM | COc1cccc2c1nc(C(F)F)n2-c1nc(Nc2cnc(N(C)CCCN(C)C)nc2)nc(N2CCOCC2)n1 |
| < 100 nM | 100 to 1000 nM | < 100 nM | COc1cccc2c1nc(C(F)F)n2-c1nc(Nc2ccc(Cl)nc2)nc(N2CCOCC2)n1 |
| < 100 nM | 100 to 1000 nM | < 100 nM | COc1ccncc1Nc1nc(N2CCOCC2)nc(-n2c(C(F)F)nc3ccccc32)n1 |
| < 100 nM | – | < 100 nM | COc1cccc2c1nc(C(F)F)n2-c1nc(N2CCOCC2)nc(N(C)c2cncnc2)n1 |
| < 100 nM | 100 to 1000 nM | < 100 nM | FC(F)c1nc2ccccc2n1-c1nc(Nc2cncnc2)nc(N2CCOCC2)n1 |
